# According to patent US20160050895A1, “TRANSGENIC NON-HUMAN ORGANISMS WITH NON-FUNCTIONAL TSPO GENES” (AUSTRALIAN NUCLEAR SCIENCE AND TECHNOLOGY ORGANIZATION, priority 2013, published 2016):
# Molecular target: TSPO (Mus musculus, UniProt P50637)
# Test: Radioligand membrane saturation binding with 3H-PK11195
# Parameters: Snap-frozen tissues were sectioned at 20 μm in a cryostat; from tissue; host or cells: mouse organ sections (brain, retina/eye, heart, adrenal, kidney, testis, spleen), C57BL/6 background
# Settings: testicular and kidney tissue; TSPO+/- mice compared to TSPO+/+ mice
# Procedure: Tissue samples were homogenised with T25 digital Ultra-Turrax homogenizer (Ika, Wilmington, N.C., USA) at speed setting 5 or 20000 rpm in approximately 45 mL of ice-cold TRIS buffer (pH 7.4), collected by centrifugation at 48000 g and the supernatant was then discarded. The procedure was then immediately repeated, this acts as an extra wash step to remove any soluble interfering substances to radioligand binding (Byland et al. 1993). Following the second centrifugation and removal ofsupernatant the samples were resuspended in approximately 50 volumes of ice-cold TRIS buffer (pH 7.4). Samples were aliquoted stored in −80° C. until required.
# For TSPO knock-out mice studies, radioligand binding was performed using 3H-PK11195 racemate across a range of concentrations (FIG. 4). PK11195 is a TSPO specific probe. Total and non-specific binding was determined through 8 concentrations of 3H-PK11195 ranging from 0.56 nM to 20 nM. Non-specific binding was determined by the addition of 5 μM PK11195 to all concentrations of 3H-PK11195. […]
# Organs were homogenised, washed twice in ice-cold 50 mM Tris-HCl (pH 7.4) by centrifugation at 48000×g, resuspended in 50 volumes of ice-cold 50 mM Tris-HCl, and protein concentration was determined using a BCA protein assay kit (Thermo Fisher Scientific). […] Non-specific binding was determined with 5 μM PK11195. […]
smiles,measurement,value
CC[C@@H](C)N(C)C(=O)c1cc2ccccc2c(-c2ccccc2Cl)n1 [[^3H]PK11195],Specific binding using [3H]PK11195,approximately half the signal
